Test results reported in ChEMBL document CHEMBL4507269, “Data for DCP probe BAY-386” (2021).
The source made the active and inactive calls. The rule behind the calls is not given here.

How the values were obtained:
[1] = biological target: Serine/threonine-protein kinase BRSK1 (Homo sapiens) (UniProt Q8TDC3); conditions: Compound concentration 1000.0 nM
[2] = biological target: Glycogen synthase kinase-3 alpha (Homo sapiens) (UniProt P49840); conditions: Compound concentration 1000.0 nM
[3] = biological target: T1, Proteinase-activated receptor 1 (Homo sapiens, UniProt P25116); test: Functional cellular assay (HEK cells) (F2R)
T1 sequence (P25116 whole entry): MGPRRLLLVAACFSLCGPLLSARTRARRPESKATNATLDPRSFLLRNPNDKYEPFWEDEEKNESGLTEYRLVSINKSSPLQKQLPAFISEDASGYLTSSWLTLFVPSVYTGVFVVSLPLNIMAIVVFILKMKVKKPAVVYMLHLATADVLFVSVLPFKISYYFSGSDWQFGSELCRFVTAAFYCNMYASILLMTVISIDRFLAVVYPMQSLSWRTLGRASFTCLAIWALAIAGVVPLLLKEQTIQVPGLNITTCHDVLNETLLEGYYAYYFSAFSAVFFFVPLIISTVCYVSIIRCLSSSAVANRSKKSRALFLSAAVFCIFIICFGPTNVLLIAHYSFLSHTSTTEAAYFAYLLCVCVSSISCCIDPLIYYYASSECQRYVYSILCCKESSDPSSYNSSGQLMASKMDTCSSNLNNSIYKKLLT

[4] = biological target: Tyrosine-protein kinase FRK (Homo sapiens) (UniProt P42685); conditions: Compound concentration 1000.0 nM
[5] = test system: Phosphatidylinositol 4,5-bisphosphate 3-kinase catalytic subunit alpha isoform (Homo sapiens), P42336 [H1047L]; conditions: Compound concentration 1000.0 nM
[6] = biological target: Fibroblast growth factor receptor 4 (Homo sapiens) (UniProt P22455); conditions: Compound concentration 1000.0 nM
[7] = biological target: D(2) dopamine receptor (Homo sapiens) (UniProt P14416); conditions: Compound concentration 10.0 uM
[8] = biological target: Serine/threonine-protein kinase Nek5 (Homo sapiens) (UniProt Q6P3R8); conditions: Compound concentration 1000.0 nM
[9] = biological target: Ephrin type-A receptor 7 (Homo sapiens) (UniProt Q15375); conditions: Compound concentration 1000.0 nM
[10] = biological target: Ephrin type-A receptor 3 (Homo sapiens) (UniProt P29320); conditions: Compound concentration 1000.0 nM
[11] = test system: Tyrosine-protein kinase ABL1 (Homo sapiens), P00519 [H396P]; conditions: Compound concentration 1000.0 nM
[12] = biological target: Dual specificity mitogen-activated protein kinase kinase 6 (Homo sapiens) (UniProt P52564); conditions: Compound concentration 1000.0 nM
[13] = biological target: T2, Muscarinic acetylcholine receptor M1 (Homo sapiens) (UniProt P11229); conditions: Compound concentration 10.0 uM
T2 sequence (whole entry): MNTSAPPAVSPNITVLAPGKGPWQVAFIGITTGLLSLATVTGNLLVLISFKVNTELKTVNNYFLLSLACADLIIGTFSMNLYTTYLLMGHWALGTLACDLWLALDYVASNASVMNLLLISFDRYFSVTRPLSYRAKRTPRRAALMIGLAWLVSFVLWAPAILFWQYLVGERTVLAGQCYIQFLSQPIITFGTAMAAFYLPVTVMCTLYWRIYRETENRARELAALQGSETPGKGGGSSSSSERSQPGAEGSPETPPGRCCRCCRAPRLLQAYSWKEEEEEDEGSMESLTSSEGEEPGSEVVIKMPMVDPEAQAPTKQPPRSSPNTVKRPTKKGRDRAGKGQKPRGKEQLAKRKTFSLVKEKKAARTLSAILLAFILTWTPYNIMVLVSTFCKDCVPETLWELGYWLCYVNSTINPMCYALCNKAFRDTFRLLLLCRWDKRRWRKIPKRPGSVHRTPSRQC

[14] = biological target: 5-hydroxytryptamine receptor 2B (Homo sapiens) (UniProt P41595); conditions: Compound concentration 10.0 uM
[15] = biological target: Serine/threonine-protein kinase STK11 (Homo sapiens) (UniProt Q15831); conditions: Compound concentration 1000.0 nM
[16] = biological target: STE20-like serine/threonine-protein kinase (Homo sapiens) (UniProt Q9H2G2); conditions: Compound concentration 1000.0 nM
[17] = biological target: Cytoplasmic tyrosine-protein kinase BMX (Homo sapiens) (UniProt P51813); conditions: Compound concentration 1000.0 nM
[18] = biological target: Sigma intracellular receptor 2 (Homo sapiens, UniProt Q5BJF2); conditions: Compound concentration 10.0 uM
[19] = biological target: D(1A) dopamine receptor (Homo sapiens) (UniProt P21728); test: D1 (h) Eurofins-Cerep Cellular and Nuclear Receptor Functional Assays; conditions: Compound concentration 10.0 uM
[20] = biological target: Histamine H3 receptor (Homo sapiens) (UniProt Q9Y5N1); test: H3 (h) Eurofins-Cerep Cellular and Nuclear Receptor Functional Assays; conditions: Compound concentration 10.0 uM
[21] = biological target: Proteinase-activated receptor 4 (Homo sapiens, UniProt Q96RI0); test: Functional cellular assay (HEK cells) (F2RL3)
[22] = biological target: Serine/threonine-protein kinase tousled-like 1 (Homo sapiens) (UniProt Q9UKI8); conditions: Compound concentration 1000.0 nM
[23] = biological target: Tyrosine-protein kinase Srms (Homo sapiens) (UniProt Q9H3Y6); conditions: Compound concentration 1000.0 nM
[24] = biological target: Vascular endothelial growth factor receptor 3 (Homo sapiens) (UniProt P35916); conditions: Compound concentration 1000.0 nM
[25] = biological target: Maternal embryonic leucine zipper kinase (Homo sapiens) (UniProt Q14680); conditions: Compound concentration 1000.0 nM
[26] = biological target: Serine/threonine-protein kinase Nek6 (Homo sapiens) (UniProt Q9HC98); conditions: Compound concentration 1000.0 nM
[27] = biological target: Interleukin-1 receptor-associated kinase 3 (Homo sapiens) (UniProt Q9Y616); conditions: Compound concentration 1000.0 nM
[28] = biological target: Serine/threonine-protein kinase haspin (Homo sapiens) (UniProt Q8TF76); conditions: Compound concentration 1000.0 nM
[29] = biological target: Tyrosine-protein kinase Lck (Homo sapiens) (UniProt P06239); conditions: Compound concentration 1000.0 nM
[30] = biological target: Ribosomal protein S6 kinase alpha-3 (Homo sapiens) (UniProt P51812); conditions: Compound concentration 1000.0 nM
[31] = biological target: Dual specificity mitogen-activated protein kinase kinase 5 (Homo sapiens) (UniProt Q13163); conditions: Compound concentration 1000.0 nM
[32] = test system: Epidermal growth factor receptor (Homo sapiens), P00533 [G719S]; conditions: Compound concentration 1000.0 nM
[33] = biological target: Serine/threonine-protein kinase 25 (Homo sapiens) (UniProt O00506); conditions: Compound concentration 1000.0 nM

Chain of D(1A) dopamine receptor (Homo sapiens) (P21728 whole entry): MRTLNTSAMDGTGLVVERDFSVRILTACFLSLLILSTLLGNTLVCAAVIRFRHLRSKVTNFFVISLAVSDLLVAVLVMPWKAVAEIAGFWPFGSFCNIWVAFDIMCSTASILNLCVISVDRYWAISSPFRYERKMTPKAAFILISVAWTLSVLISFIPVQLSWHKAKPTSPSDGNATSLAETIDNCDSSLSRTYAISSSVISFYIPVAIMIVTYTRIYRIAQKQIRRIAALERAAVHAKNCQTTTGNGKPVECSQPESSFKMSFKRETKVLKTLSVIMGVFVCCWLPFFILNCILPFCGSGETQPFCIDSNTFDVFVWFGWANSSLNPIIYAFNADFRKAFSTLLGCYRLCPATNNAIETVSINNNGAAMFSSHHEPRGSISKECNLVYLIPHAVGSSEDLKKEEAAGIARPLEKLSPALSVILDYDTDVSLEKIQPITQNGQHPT
Chain of Histamine H3 receptor (Homo sapiens) (Q9Y5N1 whole entry): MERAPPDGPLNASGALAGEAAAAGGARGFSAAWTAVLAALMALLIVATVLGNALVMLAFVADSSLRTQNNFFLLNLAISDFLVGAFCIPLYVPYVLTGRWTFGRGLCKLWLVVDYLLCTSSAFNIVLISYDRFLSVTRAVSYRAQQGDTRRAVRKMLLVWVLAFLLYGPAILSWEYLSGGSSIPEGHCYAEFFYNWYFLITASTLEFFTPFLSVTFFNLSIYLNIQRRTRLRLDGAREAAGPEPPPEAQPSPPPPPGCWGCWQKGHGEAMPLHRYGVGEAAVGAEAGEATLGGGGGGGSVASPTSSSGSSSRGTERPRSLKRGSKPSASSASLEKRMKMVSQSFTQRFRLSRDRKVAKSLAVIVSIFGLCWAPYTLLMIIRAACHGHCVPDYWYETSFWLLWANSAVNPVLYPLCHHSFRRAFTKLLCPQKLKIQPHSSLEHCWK
Chain of Sigma intracellular receptor 2 (Q5BJF2 whole entry): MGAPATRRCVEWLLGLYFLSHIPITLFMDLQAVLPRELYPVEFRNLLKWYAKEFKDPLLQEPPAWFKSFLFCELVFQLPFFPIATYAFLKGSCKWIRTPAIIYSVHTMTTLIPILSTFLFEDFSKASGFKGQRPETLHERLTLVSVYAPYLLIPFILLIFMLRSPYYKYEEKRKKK
Chain of STE20-like serine/threonine-protein kinase (Homo sapiens) (Q9H2G2 whole entry, looked up): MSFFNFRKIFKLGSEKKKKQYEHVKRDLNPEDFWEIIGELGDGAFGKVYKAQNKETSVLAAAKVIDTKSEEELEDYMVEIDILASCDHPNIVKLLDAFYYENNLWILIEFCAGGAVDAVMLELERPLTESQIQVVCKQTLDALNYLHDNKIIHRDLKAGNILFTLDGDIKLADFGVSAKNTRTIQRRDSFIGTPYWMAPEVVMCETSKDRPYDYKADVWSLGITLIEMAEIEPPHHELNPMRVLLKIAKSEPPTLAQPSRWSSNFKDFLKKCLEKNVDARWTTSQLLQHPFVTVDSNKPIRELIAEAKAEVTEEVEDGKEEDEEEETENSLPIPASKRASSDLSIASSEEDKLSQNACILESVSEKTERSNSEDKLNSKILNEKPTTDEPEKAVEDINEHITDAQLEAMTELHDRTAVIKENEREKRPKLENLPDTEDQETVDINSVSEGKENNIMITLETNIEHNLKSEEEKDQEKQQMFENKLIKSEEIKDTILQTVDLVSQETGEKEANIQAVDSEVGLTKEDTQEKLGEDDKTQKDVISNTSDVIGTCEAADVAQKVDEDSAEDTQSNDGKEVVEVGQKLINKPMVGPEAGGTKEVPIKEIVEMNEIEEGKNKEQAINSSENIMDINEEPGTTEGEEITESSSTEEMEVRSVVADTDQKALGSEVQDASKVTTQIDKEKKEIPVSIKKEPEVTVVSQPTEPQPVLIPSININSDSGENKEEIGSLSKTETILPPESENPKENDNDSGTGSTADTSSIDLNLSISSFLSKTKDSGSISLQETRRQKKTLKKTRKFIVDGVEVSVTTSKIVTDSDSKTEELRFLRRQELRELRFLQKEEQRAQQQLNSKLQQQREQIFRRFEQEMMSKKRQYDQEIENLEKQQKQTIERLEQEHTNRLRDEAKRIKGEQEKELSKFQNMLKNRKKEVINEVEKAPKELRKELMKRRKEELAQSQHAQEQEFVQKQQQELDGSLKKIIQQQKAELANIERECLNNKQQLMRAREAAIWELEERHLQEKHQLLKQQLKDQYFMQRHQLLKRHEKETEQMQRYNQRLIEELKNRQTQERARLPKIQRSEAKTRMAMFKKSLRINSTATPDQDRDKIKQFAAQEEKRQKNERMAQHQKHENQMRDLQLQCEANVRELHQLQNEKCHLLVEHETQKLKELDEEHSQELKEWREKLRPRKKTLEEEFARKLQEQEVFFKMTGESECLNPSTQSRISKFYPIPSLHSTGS
Chain of Interleukin-1 receptor-associated kinase 3 (Homo sapiens) (Q9Y616 whole entry): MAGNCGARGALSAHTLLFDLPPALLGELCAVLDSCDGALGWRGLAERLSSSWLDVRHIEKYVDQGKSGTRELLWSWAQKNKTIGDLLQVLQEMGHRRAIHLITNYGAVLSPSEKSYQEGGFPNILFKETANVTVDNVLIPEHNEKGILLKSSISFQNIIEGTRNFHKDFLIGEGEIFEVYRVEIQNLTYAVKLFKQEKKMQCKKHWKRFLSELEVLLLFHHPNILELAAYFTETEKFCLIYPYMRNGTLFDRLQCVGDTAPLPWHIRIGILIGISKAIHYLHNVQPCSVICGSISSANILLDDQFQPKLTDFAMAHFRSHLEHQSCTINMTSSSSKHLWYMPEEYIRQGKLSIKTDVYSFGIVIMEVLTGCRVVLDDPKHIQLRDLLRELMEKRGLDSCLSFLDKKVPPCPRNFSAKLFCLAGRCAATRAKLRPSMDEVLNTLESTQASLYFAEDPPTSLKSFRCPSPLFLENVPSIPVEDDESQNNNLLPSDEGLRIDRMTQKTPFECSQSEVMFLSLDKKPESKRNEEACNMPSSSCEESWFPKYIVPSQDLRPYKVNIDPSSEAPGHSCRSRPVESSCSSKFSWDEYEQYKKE
Chain of Serine/threonine-protein kinase Nek5 (Homo sapiens) (Q6P3R8 whole entry): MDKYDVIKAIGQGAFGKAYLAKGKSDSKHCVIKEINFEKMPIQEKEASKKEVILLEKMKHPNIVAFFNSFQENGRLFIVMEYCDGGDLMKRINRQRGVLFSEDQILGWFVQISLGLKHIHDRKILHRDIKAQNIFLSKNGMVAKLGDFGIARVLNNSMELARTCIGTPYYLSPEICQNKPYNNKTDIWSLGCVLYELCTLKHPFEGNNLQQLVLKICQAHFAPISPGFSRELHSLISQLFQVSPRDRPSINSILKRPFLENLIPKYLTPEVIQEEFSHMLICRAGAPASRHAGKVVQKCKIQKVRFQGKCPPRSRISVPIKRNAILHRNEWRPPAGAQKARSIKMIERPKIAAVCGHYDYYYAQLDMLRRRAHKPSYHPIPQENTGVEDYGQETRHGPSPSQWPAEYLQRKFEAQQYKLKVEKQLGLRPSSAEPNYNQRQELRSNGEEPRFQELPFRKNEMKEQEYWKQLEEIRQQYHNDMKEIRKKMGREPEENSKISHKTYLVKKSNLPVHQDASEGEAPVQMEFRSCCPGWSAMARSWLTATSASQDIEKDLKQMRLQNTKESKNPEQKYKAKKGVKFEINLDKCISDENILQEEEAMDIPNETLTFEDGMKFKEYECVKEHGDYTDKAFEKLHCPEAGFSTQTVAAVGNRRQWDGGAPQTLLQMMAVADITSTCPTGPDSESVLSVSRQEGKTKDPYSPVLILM
Chain of Fibroblast growth factor receptor 4 (Homo sapiens) (P22455 22-802 limits assumed): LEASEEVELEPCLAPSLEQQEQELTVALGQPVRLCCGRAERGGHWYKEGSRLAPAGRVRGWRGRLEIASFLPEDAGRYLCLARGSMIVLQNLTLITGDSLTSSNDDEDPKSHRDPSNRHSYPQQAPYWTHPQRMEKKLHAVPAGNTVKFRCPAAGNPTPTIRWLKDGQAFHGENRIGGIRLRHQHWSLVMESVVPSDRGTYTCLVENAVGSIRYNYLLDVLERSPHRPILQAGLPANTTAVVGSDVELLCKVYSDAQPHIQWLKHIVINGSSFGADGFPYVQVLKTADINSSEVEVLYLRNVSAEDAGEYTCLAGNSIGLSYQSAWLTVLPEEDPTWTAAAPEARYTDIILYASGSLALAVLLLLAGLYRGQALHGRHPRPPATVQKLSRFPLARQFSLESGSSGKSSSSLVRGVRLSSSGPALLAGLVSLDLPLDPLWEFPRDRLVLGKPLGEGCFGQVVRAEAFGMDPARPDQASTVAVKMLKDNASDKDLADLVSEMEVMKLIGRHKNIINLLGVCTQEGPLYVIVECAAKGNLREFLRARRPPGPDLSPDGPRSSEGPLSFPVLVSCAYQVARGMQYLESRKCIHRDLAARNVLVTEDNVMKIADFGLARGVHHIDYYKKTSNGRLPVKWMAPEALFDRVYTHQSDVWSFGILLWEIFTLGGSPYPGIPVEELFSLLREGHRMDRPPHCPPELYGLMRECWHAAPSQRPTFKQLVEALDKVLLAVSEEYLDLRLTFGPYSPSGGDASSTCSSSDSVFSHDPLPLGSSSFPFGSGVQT
Chain of 5-hydroxytryptamine receptor 2B (Homo sapiens) (P41595 whole entry): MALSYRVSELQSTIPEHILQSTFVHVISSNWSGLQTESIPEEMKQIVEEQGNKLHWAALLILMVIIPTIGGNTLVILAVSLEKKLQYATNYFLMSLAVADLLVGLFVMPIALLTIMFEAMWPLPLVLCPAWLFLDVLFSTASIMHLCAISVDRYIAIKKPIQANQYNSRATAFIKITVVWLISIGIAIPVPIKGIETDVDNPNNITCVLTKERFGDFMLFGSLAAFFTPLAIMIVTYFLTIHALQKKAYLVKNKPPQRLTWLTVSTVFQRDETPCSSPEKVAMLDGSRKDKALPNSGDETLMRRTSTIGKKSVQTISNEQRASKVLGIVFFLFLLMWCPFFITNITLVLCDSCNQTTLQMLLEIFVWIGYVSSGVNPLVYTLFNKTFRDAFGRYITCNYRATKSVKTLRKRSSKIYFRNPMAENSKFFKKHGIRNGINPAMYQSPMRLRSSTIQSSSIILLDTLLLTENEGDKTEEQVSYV

Structure (SMILES) | residual activity [1] | residual activity [2] | IC50 [3] | residual activity [4] | residual activity [5] | residual activity [6] | inhibition [7] | residual activity [8] | residual activity [9] | residual activity [10] | residual activity [11] | residual activity [12] | inhibition [13] | inhibition [14] | residual activity [15] | residual activity [16] | residual activity [17] | inhibition [18] | % Inhibition of Control Agonist Response (Mean n=2) [19] | % of Control Agonist Response (Mean n=2) [19] | also measured
O=C(N1CCS(=O)(=O)CC1)N1C[C@H](c2ccc(OC(F)(F)F)cc2)C[C@H](c2nc(C3CC3)no2)C1 [BAY-386] | 100% | 100% | 0.01 µM (active) | 100% | 100% | 100% | -0.71% | 98% | 96% | 100% | 100% | 100% | 2.07% | 17.1% | 92% | 100% | 100% | 67.7% | -31.6% | -1.4% | % Inhibition of Control Agonist Response (Mean n=2) [20]: -3.7%; % of Control Agonist Response (Mean n=2) [20]: 6.2%; IC50 [21]: > 10 µM (not active); residual activity [22]: 94%; residual activity [23]: 100%; residual activity [24]: 100%; residual activity [25]: 100%; residual activity [26]: 98%; residual activity [27]: 100%; residual activity [28]: 95%; residual activity [29]: 100%; residual activity [30]: 100%; residual activity [31]: 100%; residual activity [32]: 99%; residual activity [33]: 93%
Cc1noc([C@H]2C[C@@H](c3ccc(C(F)(F)F)cc3)CN(C(=O)N3CCS(=O)(=O)C3)C2)n1 [BAY-448] | 100% | 79% | > 10 µM (not active) | 100% | 100% | 100% | -0.15% | 100% | 100% | 100% | 100% | 100% | -7.31% | 16.8% | 100% | 98% | 100% | 42.4% | 13.9% | -1.2% | % Inhibition of Control Agonist Response (Mean n=2) [20]: -4.2%; % of Control Agonist Response (Mean n=2) [20]: 13.9%; IC50 [21]: > 5 µM (not active); residual activity [22]: 100%; residual activity [23]: 89%; residual activity [24]: 100%; residual activity [25]: 100%; residual activity [26]: 100%; residual activity [27]: 100%; residual activity [28]: 100%; residual activity [29]: 100%; residual activity [30]: 100%; residual activity [31]: 78%; residual activity [32]: 100%; residual activity [33]: 89%
